Experimental data from article PMC10579241, “Impact of trifluoromethyl and sulfonyl groups on the biological activity of novel aryl-urea derivatives: synthesis, in-vitro, in-silico and SAR studies” (Scientific Reports, 2023).
Converted amounts (≈) assume the structure as drawn. Where two headings read alike, the source gives them in different places. Marks after values point to notes of the source that are not given here.

Legend:
prostate cancer (PC3) = experiment: cells; format: cell-based; settings: Homo sapiens, 48 h
[1] = system: human lung carcinoma (A549); experiment: cells; format: cell-based
Candida albicans [2] = experiment: MIC by serial dilution (agar wells), C. albicans; format: cell-based
skin cancer (A431) = experiment: cells; format: cell-based; settings: Homo sapiens, A-431, 100 μg/mL, 48 h
Bacillus mycoides [3] = experiment: microbe, parasite or virus in culture; format: cell-based
Escherichia coli [4] = experiment: Agar well diffusion, E. coli; format: cell-based; settings: Escherichia coli, read-out: Inhibition zones diameter
KRAS = experiment: qRT-PCR, KRAS in A549 cells; format: cell-based, human; settings: versus negative samples
Bacillus mycoides [5] = experiment: microbe, parasite or virus in culture; format: cell-based; remark: listed apart in the source
[6] = system: osteosarcoma cell line (HOS); experiment: cells; format: cell-based; settings: Homo sapiens, 48 h, 100 μg/mL
EGFR = experiment: qRT-PCR, EGFR in A549 cells; format: cell-based, human; settings: versus negative samples
[7] = system: pancreatic cancer cell line (PACA2); experiment: cells; format: cell-based; settings: Homo sapiens, PaCa-2, 48 h
A549 [8] = experiment: DNA fragmentation assay, A549; format: cell-based, human
Escherichia coli [9] = experiment: MIC by serial dilution (agar wells), E. coli; format: cell-based
[10] = system: hepatocellular carcinoma cell line (HePG2); experiment: cells; format: cell-based; settings: Homo sapiens, 48 h
Candida albicans [11] = experiment: Agar well diffusion, C. albicans; format: cell-based
colon cancer (HCT116) = experiment: cells; format: cell-based; settings: Homo sapiens
A549 [12] = experiment: DNA damage, comet assay, A549; format: cell-based, human
in vitro = format: cell-based; settings: human, BJ1 normal skin fibroblast cells, 100 μg/mL
[13] = 0.00488 mg/mL, 150 µL in DMSO, 15 mm agar well
[14] = 0.00975 mg/mL, 150 µL in DMSO, 15 mm agar well
[15] = 0.0195 mg/mL, 150 µL in DMSO, 15 mm agar well
[16] = 0.0391 mg/mL, 150 µL in DMSO, 15 mm agar well
[17] = 0.0781 mg/mL, 150 µL in DMSO, 15 mm agar well
[18] = 0.1563 mg/mL, 150 µL in DMSO, 15 mm agar well
[19] = 0.3125 mg/mL, 150 µL in DMSO, 15 mm agar well
[20] = 0.625 mg/mL, 150 µL in DMSO, 15 mm agar well
[21] = 1.25 mg/mL, 150 µL in DMSO, 15 mm agar well
[22] = 2.50 mg/mL, 150 µL in DMSO, 15 mm agar well
[23] = 5.00 mg/mL, 150 µL in DMSO, 15 mm agar well
[24] = 10.0 mg/mL, 150 µL in DMSO, 15 mm agar well
[25] = read-out: Minimum inhibition concentration (MIC)

In the case of `Cc1ccc(S(=O)(=O)NC(=O)Nc2ccc(OC(F)(F)F)cc2)cc1` [Compound 8, 4-Methyl-N-[(4-{trifluoromethoxy}phenyl)carbamoyl]benzenesulfonamide], the mortality at 100 µg/mL (prostate cancer (PC3); 100 μg/mL) is reported as 100%, the IC50 (prostate cancer (PC3); MTT) is reported as 57.2 ± 0.39 µM and the mortality at 100 µg/mL ([1]; A549, 48 h, 100 μg/mL) is reported as 100%. It also gave an IC50 ([1]; MTT, 48 h) of 55.8 ± 0.11 µM, a zone of inhibition at 4.88 µg/mL (Candida albicans [2]; [13]) of 16 mm and a zone of inhibition at 9.75 µg/mL (Candida albicans [2]; [14]) of 17 mm. It also gave a zone of inhibition at 19.5 µg/mL (Candida albicans [2]; [15]) of 17 mm, a zone of inhibition at 39.1 µg/mL (Candida albicans [2]; [16]) of 17 mm and a zone of inhibition at 78.1 µg/mL (Candida albicans [2]; [17]) of 18 mm. It also gave a zone of inhibition at 156.3 µg/mL (Candida albicans [2]; [18]) of 23 mm, a zone of inhibition at 312.5 µg/mL (Candida albicans [2]; [19]) of 25 mm and a zone of inhibition at 625 µg/mL (Candida albicans [2]; [20]) of 27 mm. The zone of inhibition at 1250 µg/mL (Candida albicans [2]; [21]) was 28 mm, the zone of inhibition at 2500 µg/mL (Candida albicans [2]; [22]) was 30 mm and the zone of inhibition at 5000 µg/mL (Candida albicans [2]; [23]) was 32 mm. For the same molecule, the zone of inhibition at 10000 µg/mL (Candida albicans [2]; [24]) was 34 mm, the MIC (Candida albicans [2]; [25]) was 4.88 µg/mL (≈ 13 µM) and the mortality at 100 µg/mL (skin cancer (A431)) was 27.5 ± 0.64%. It also gave an Inhibition zones diameter (Bacillus mycoides [3]; B. mycoides, 200 μL of 10 mg/mL in DMSO in 15 mm holes, overnight 37 °C) of 37 ± 0.23 mm, a zone of inhibition at 10000 µg/mL (Bacillus mycoides [3]; Bacillus mycoides, read-out: Inhibition zones diameter) of 37 mm and a zone of inhibition at 10000 µg/mL (Escherichia coli [4]) of 29 ± 0.44 mm. The “KRAS gene expression level” value (KRAS) was “significant reduction”, the zone of inhibition at 4.88 µg/mL (Bacillus mycoides [5]; read-out: Inhibition zone) was 17 mm and the zone of inhibition at 9.75 µg/mL (Bacillus mycoides [5]; read-out: Inhibition zone) was 17 mm. For the same molecule, the zone of inhibition at 19.5 µg/mL (Bacillus mycoides [5]; read-out: Inhibition zone) was 17 mm, the zone of inhibition at 39.1 µg/mL (Bacillus mycoides [5]; read-out: Inhibition zone) was 17 mm and the zone of inhibition at 78.1 µg/mL (Bacillus mycoides [5]; read-out: Inhibition zone) was 17 mm. The zone of inhibition at 156.3 µg/mL (Bacillus mycoides [5]; read-out: Inhibition zone) was 17 mm, the zone of inhibition at 312.5 µg/mL (Bacillus mycoides [5]; read-out: Inhibition zone) was 20 mm and the zone of inhibition at 625 µg/mL (Bacillus mycoides [5]; read-out: Inhibition zone) was 23 mm. For the same molecule, the zone of inhibition at 1250 µg/mL (Bacillus mycoides [5]; read-out: Inhibition zone) was 26 mm, the zone of inhibition at 2500 µg/mL (Bacillus mycoides [5]; read-out: Inhibition zone) was 27 mm and the zone of inhibition at 5000 µg/mL (Bacillus mycoides [5]; read-out: Inhibition zone) was 27 mm. The zone of inhibition at 10000 µg/mL (Bacillus mycoides [5]; read-out: Inhibition zone) was 32 mm, the MIC (Bacillus mycoides [5]; [25]) was 4.88 µg/mL (≈ 13 µM) and the mortality at 100 µg/mL [6] was greater than 50%. The “EGFR gene expression level” value (EGFR) was “significant reduction”, the mortality at 100 µg/mL ([7]; 100 μg/mL) was 100% and the IC50 ([7]; MTT) was 22.4 ± 0.49 µM. The “Change (DNA fragmentation versus untreated cells)” value (A549 [8]) was 22.8, the “DNA fragmentation % M ± SEM” value (A549 [8]; IC50 concentration, 24 h) was 34.2 ± 0.57^a % and the Inhibition (A549 [8]; doxorubicin = 0.0) was 16.92. For the same molecule, the zone of inhibition at 4.88 µg/mL (Escherichia coli [9]; [13]) was 16 mm, the zone of inhibition at 9.75 µg/mL (Escherichia coli [9]; [14]) was 17 mm and the zone of inhibition at 19.5 µg/mL (Escherichia coli [9]; [15]) was 17 mm. It also gave a zone of inhibition at 39.1 µg/mL (Escherichia coli [9]; [16]) of 18 mm, a zone of inhibition at 78.1 µg/mL (Escherichia coli [9]; [17]) of 18 mm and a zone of inhibition at 156.3 µg/mL (Escherichia coli [9]; [18]) of 19 mm. It also gave a zone of inhibition at 312.5 µg/mL (Escherichia coli [9]; [19]) of 23 mm, a zone of inhibition at 625 µg/mL (Escherichia coli [9]; [20]) of 25 mm and a zone of inhibition at 1250 µg/mL (Escherichia coli [9]; [21]) of 27 mm. For the same molecule, the zone of inhibition at 2500 µg/mL (Escherichia coli [9]; [22]) was 28 mm, the zone of inhibition at 5000 µg/mL (Escherichia coli [9]; [23]) was 29 mm and the zone of inhibition at 10000 µg/mL (Escherichia coli [9]; [24]) was 32 mm. The MIC (Escherichia coli [9]; [25]) was 4.88 µg/mL (≈ 13 µM), the mortality at 100 µg/mL ([10]; 100 μg/mL) was 100% and the IC50 ([10]; MTT) was 74 ± 0.29 µM. It also gave an Inhibition zones diameter (Candida albicans [11]; C. albicans, 200 μL of 10 mg/mL in DMSO in 15 mm holes, overnight 37 °C) of 38 ± 0.67 mm, a zone of inhibition at 10000 µg/mL (Candida albicans [11]; Candida albicans, read-out: Inhibition zones diameter) of 38 mm and a mortality at 100 µg/mL (colon cancer (HCT116); HCT-116, 48 h, 100 μg/mL) of 100%. The IC50 (colon cancer (HCT116); HCT-116, MTT, 48 h) was 47.3 ± 0.91 µM, the “DNA damaged cells % (mean ± SEM)” value (A549 [12]) was 24.75 ± 1.03^a % and the “Class 0 (no tail), number of cells” value (A549 [12]; of 400 cells analyzed) was 301. For the same molecule, the “Class 1 (tail length < diameter of nucleus), number of cells” value (A549 [12]; of 400 cells analyzed) was 39, the “Class 2 (tail length between 1 and 2 × the diameter of nucleus), number of cells” value (A549 [12]; of 400 cells analyzed) was 38 and the “Class 3 (tail length > 2 × the diameter of nucleus), number of cells” value (A549 [12]; of 400 cells analyzed) was 22. The “No. of cells, Comets” value (A549 [12]; of 400 cells analyzed) was 99 and the mortality at 48 h, 100 µg/mL (in vitro) was 6.2 ± 1.54%.
